The source of these data is US20110312961A1, “2,5-Disubstituted Morpholine Orexin REceptor Antagonists” (priority 2008, published 2011).

One test relates to CD-1 mice. Put plainly: Formalin test. The class given is in vivo, mouse. The procedure:
One of the most clinically predictive screening models of acute pain is the formalin test in mice (LeBars et al., 2001). In this paradigm, originally described by Dubuisson and Dennis (1977), a diluted solution of formalin is injected into the plantar surface of a subject's (rat or mouse) rear paw and nociceptive behavior is measured; for instance, licking and biting of the injected paw. Two phases of the response are observed. First an early phase, starting immediately after injection and lasting 5-10 minutes, followed by a late phase that can last from 15-60 minutes after injection. Nociceptive response is attributed to direct chemical stimulation in the early phase and inflammation/persistent pain in the later phase (Dubuisson and Dennis, 1977). The response in the late phase also depends on changes in processing of information in the spinal cord due to the afferent barrage during the early phase (Coderre et al., 1990). An advantage of the test is that two different types of stimuli are employed in the same assay to study the possibility of varying analgesic effects of a drug in the two phases of the test (Tjølsen and Hole, 1997).
Subjects (adult male CD-1 mice (Charles River, Raleigh, N.C.) weighing approximately 20-25 grams) were removed from their home cage and weighed, then placed in a clear Plexiglas™ observation box for an acclimation period of 20-30 minutes. Mice were then removed from the observation chambers and (2S,3R)—N-2-((3-pyridinyl)methyl)-1-azabicyclo[2.2.2]oct-3-yl)-3,5-difluorobenzamide (as the hydrochloride salt in 0.9% saline) (1, 3 or 10 mg/kg s.c. (calculated with respect to the free base)), morphine (5 mg/kg; s.c.) or 0.9% saline vehicle was administered subcutaneously in a volume of 1 mL/kg. Mice were then returned to the chamber for the predetermined pretreatment time of 30 minutes for (2S,3R)—N-2-((3-pyridinyl)methyl)-1-azabicyclo[2.2.2]oct-3-yl)-3,5-difluorobenzamide and morphine.
After the test compound pretreatment time, the animals were injected with formalin solution (2.5% derived as a 1:4 dilution of 10% phosphate buffered formalin solution (Sigma):distilled water). The subject's assigned paw was gasped gently and formalin solution was injected into the paw intra-dermally in the middle on the dorsal side. Once injected, the subject was immediately returned to its observation chamber and a timer was started to mark the beginning of Phase I. Each subject was videotaped for the entire 40-minute session. […] The time spent licking during that 1 min interval was recorded, and the presence or absence of paw favoring was noted.
For data analyses, phase I of the test was defined as 0 to 5 minutes after formalin injection, and phase II was defined as 20 to 40 minutes after formalin injection. The time spent licking during the 1 minute intervals during those time frames was recorded and graphed as mean±S.E.M. For comparisons across treatment groups, 1-way analyses of variance (ANOVAs) were performed for each phase of the session with treatment as the […] variable. Post-hoc analyses were performed when appropriate to determine specific group differences.

Test [1] deals with T1, human native muscle-type nicotinic receptors (likely α1β1γδ) (Homo sapiens, UniProt P02708+P07510+Q07001).
T1 construct: human native muscle-type nicotinic receptors (likely α1β1γδ); endogenous in cells; host or cells: TE-671
Put plainly: [3H]epibatidine binding, TE-671 membranes.

The next test deals with T2, rat native α7 receptors (Rattus norvegicus, UniProt Q05941).
T2 construct: rat native α7 receptors in rat hippocampal membranes; from tissue; host or cells: rat (female Sprague-Dawley) hippocampus membranes
The test can be described thus: [3H]MLA radioligand binding, α7 NNR subtype, rat hippocampal membranes. The settings on record: read-out: Ki, inhibition of [3H]methyllycaconitine (MLA) binding to rat native α7 receptors. The procedure: Rats (female, Sprague-Dawley), weighing 150-250 g, were maintained on a 12 h light/dark cycle and were allowed free access to water and food supplied by PMI Nutrition International, Inc. Animals were anesthetized with 70% CO2, and then decapitated. Brains were removed and placed on an ice-cold platform. The hippocampus was removed and placed in 10 volumes (weight:volume) of ice-cold preparative buffer (137 mM NaCl, 10.7 mM KCl, 5.8 mM KH2PO4, 8 mM Na2HPO4, 20 mM HEPES (free acid), 5 mM iodoacetamide, 1.6 mM EDTA, pH 7.4); PMSF, dissolved in methanol to a final concentration of 100 μM, was added and the tissue suspension was homogenized by Polytron. […] Protein was determined by the method of Lowry et al., J. Biol. Chem. 193: 265 (1951), using bovine serum albumin as the standard.
The binding of [^3H]MLA was measured using a modification of the methods of Davies et al., Neuropharmacol. […] The binding of [^3H]MLA was determined using a 2 h incubation at 21° C. […] Non-specific binding was determined by inclusion of 50 μM non-radioactive MLA in selected wells.
The inhibition of [^3H]MLA binding by test compounds was determined by including seven different concentrations of the test compound in selected wells. […] Inhibition constants (Ki values), reported in nM, were calculated from the IC50 values using the method of Cheng et al., Biochem. Pharmacol. 22: 3099-3108 (1973).

In test [2] the target is T3, human recombinant α4β4 nicotinic receptors (Homo sapiens, UniProt P30926+P43681).
T3 construct: expressed in transfected cells; host or cells: SH-EP1
Put plainly: [3H]epibatidine binding, SH-EP1 membranes.

pKi: −log10 of the molar value.

T1 sequence (P07510 23-517): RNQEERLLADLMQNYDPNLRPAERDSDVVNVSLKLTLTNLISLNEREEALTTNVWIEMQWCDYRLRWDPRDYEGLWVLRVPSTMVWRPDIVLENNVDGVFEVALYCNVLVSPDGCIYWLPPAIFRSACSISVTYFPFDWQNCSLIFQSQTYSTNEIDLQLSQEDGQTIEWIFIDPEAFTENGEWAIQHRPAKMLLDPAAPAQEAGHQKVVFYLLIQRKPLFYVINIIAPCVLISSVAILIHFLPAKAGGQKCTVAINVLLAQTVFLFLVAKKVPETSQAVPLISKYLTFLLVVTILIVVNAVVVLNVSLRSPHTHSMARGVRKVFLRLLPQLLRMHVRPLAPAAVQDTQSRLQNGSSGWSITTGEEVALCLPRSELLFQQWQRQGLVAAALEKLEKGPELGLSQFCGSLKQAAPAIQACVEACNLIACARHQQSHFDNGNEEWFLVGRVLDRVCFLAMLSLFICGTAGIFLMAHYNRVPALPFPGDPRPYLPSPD
T1 sequence (P11230 24-501, further chain): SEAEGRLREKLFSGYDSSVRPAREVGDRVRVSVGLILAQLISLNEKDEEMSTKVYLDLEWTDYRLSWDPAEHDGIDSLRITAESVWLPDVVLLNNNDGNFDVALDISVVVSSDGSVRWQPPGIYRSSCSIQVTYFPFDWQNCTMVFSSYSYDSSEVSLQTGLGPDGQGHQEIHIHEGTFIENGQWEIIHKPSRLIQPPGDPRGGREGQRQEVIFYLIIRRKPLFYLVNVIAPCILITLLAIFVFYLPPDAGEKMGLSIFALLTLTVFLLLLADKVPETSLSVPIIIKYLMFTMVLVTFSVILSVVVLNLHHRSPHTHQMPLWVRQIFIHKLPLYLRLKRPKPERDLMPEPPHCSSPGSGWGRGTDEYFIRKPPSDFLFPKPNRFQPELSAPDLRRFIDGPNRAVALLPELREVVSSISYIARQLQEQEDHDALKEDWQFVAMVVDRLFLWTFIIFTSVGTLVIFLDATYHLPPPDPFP
T1 sequence (P02708 21-457): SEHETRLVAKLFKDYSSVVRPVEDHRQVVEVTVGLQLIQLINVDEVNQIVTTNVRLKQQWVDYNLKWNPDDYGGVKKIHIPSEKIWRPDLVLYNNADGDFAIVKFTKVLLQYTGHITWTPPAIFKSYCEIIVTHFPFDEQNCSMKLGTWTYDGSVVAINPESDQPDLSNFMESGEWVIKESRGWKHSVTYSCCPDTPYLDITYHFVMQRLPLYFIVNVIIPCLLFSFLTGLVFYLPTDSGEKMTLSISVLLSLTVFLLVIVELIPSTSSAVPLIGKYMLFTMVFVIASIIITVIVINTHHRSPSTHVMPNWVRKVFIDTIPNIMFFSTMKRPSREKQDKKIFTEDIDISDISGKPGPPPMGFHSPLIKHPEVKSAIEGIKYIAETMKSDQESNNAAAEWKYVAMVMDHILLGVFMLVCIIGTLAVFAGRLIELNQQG
T1 sequence (Q07001 22-517): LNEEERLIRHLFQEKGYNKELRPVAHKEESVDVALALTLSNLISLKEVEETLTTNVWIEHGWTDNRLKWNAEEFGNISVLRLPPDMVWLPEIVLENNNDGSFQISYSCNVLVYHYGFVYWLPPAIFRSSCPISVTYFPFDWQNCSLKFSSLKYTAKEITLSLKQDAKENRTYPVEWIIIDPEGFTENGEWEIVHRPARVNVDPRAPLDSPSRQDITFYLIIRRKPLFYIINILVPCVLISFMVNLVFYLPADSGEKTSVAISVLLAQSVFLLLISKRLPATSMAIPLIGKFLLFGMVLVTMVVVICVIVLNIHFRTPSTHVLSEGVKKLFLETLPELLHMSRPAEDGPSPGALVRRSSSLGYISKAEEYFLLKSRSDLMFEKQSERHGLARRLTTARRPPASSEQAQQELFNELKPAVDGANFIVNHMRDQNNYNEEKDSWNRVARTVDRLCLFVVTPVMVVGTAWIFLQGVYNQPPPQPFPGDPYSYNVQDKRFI
T3 sequence (P43681 29-627 limits assumed): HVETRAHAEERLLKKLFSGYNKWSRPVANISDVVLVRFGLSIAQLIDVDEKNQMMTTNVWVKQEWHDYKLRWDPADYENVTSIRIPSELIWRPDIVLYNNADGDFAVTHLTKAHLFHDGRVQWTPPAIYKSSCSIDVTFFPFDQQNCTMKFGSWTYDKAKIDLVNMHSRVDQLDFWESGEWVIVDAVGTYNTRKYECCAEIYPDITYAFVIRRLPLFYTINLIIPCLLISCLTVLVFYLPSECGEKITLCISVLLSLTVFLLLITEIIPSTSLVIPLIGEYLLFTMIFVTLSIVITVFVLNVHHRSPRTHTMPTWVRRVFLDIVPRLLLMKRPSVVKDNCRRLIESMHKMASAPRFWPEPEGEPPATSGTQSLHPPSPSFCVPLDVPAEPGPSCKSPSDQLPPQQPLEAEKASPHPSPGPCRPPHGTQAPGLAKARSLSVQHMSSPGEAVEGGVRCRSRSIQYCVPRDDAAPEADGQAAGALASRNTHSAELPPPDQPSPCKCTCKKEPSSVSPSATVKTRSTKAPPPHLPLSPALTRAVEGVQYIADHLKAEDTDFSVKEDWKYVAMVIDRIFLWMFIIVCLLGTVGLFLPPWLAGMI
T3 sequence (P30926 22-498): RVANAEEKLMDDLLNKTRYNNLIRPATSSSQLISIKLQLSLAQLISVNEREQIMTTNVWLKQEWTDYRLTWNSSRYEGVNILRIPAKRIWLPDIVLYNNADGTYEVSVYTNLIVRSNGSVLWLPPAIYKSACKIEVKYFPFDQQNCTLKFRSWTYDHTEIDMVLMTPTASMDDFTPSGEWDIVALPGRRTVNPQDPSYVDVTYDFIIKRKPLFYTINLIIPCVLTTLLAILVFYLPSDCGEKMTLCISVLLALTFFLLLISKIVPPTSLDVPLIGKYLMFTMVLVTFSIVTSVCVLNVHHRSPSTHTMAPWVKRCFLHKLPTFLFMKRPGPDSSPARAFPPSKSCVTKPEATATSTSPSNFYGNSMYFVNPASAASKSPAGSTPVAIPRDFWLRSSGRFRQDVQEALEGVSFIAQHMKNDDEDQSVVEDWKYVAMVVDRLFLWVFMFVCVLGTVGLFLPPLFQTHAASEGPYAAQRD
T2 sequence (Q05941 23-502): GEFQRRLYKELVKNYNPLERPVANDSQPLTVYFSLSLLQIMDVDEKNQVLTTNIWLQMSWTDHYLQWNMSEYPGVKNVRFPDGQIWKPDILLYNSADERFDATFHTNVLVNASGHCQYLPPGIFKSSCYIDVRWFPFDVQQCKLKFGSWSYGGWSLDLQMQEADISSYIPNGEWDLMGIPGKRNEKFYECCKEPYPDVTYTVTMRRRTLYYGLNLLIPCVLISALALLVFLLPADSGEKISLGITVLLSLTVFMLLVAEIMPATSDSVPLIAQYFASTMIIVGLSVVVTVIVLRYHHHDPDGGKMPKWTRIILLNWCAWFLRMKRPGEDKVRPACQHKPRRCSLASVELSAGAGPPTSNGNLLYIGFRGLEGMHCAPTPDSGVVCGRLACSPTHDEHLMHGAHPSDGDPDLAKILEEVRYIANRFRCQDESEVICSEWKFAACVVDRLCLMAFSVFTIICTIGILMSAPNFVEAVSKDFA

Turning to `O=C(N[C@@H]1C2CCN(CC2)[C@H]1Cc1cccnc1)c1cc(F)cc(F)c1` [Compound A], the “reduction of time spent licking the paw, phase II” value in the test on CD-1 mice (10 mg/kg s.c., 20 to 40 minutes after formalin, P<0.05) is “significant in reducing the time spent licking the paw”. Besides, in the test with CD-1 mice (1, 3 or 10 mg/kg s.c., hydrochloride salt, 0 to 5 minutes after formalin), the “reduction of time spent licking, phase I” value is on record as “no statistically significant dose”. Besides, the “reduction of time spent licking the affected paw, phase I or phase II” value in the test with CD-1 mice (subsequent analysis of the videotapes, scored across the entire time period) was “failed to achieve statistical significance”. Also, the pKi was 3.87 in test [1], 7.00 on rat native α7 receptors and 4.72 in test [2].

A word on the pKi: it is −log10 of the Ki, conventionally taken in molar units.
